Test results reported in patent US8999982B2, “Pharmaceutically active compounds as Axl inhibitors” (Lead Discovery Center GmbH, priority 2010, dated 2015).
Where a name gives a salt, the structure may show the parent alone.

What was measured:
Axl [1] = target: T1, Axl (Homo sapiens (Human), UniProt P30530); assay: Cellular Axl phosphorylation assay; type: cell-based; conditions: HEK293 cells transfected with Axl cDNA, 1 hour incubation
Protocol: 3. Cellular Axl Phosphorylation Assay:
HEK293 embryonal kidney fibroblasts were transfected in 96 wells with a plasmid containing Axl cDNA. As transfection reagent Superfect (Qiagen) was used. Transfection of the sole vector backbone served as negative control of Axl expression. After overnight incubation the cellular supernatant was replaced with fresh medium. On the following day the Axl-expressing cells were incubated for 1 hour with a compound according to formula (I) at the suitable concentrations. […] The mesoscale technology was used for quantification.

Axl [2] = target: T1, Axl; assay: Axl binding assay
Protocol: Binding of the tracer to the kinase is detected using an EU-labeled anti-tag antibody. […] Binding of an inhibitor to the kinase competes for binding with the tracer, resulting in a loss of FRET-signal. At first a compound according to formula (I) was diluted in 20 mM Hepes pH 8.0, 1 mM DTT, 10 mM MgCl2 and 0.01% Brij35.

T1 sequence (P30530 26-894): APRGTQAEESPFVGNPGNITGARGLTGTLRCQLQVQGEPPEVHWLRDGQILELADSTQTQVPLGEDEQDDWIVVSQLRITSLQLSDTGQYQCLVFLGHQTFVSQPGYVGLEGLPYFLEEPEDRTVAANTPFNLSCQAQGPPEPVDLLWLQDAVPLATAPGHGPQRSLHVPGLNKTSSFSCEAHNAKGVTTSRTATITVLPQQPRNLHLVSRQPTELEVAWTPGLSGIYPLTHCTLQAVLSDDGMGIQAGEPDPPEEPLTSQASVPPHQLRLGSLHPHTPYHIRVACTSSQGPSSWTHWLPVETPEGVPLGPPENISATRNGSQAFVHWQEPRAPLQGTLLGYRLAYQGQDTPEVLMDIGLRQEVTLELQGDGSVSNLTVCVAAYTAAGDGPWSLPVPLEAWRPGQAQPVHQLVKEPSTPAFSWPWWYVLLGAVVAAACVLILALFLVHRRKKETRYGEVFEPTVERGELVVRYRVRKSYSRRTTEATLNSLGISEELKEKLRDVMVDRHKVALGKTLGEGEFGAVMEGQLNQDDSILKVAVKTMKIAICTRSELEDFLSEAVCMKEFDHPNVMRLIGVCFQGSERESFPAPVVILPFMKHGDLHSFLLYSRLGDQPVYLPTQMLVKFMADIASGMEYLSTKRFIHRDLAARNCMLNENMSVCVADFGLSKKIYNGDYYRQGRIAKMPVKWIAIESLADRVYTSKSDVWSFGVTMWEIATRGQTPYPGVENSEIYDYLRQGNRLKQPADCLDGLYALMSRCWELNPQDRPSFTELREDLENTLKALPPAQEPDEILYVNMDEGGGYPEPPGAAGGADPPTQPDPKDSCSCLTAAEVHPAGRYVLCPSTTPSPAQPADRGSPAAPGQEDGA

Q: With CCOc1cn(-c2ccc(F)cc2Cl)nc1C(=O)Nc1ccc(Oc2ccnc3cc(OCCCN4CCOCC4)c(OC)cc23)c(F)c1 [Example 47, 1-(2-chloro-4-fluoro-phenyl)-4-ethoxy-N-[3-fluoro-4-[[6-methoxy-7-(3-morpholinopropoxy)-4-quinolyl]oxy]phenyl]pyrazole-3-carboxamide] as the molecule, how does the IC50 (Axl [1]) read?
A: The IC50 was less than 500 nM.

Q: And the IC50 (Axl [2])?
A: Its IC50 is less than 500 nM.

Q: With COc1cc2c(Oc3ccc(NC(=O)c4nn(-c5ccc(F)cc5)cc4OCCN(C)C)cc3F)ccnc2cc1OCCCN1CCOCC1 [Example 48, 4-(2-dimethylaminoethoxy)-N-[3-fluoro-4-[[6-methoxy-7-(3-morpholinopropoxy)-4-quinolyl]oxy]phenyl]-1-(4-fluorophenyl)pyrazole-3-carboxamide] as the molecule, how does the IC50 (Axl [1]) read?
A: The IC50 was less than 500 nM.

Q: And the IC50 (Axl [2])?
A: The IC50 was less than 500 nM.

Q: Which results are given for CCOc1cn(-c2ccc(F)cc2Br)nc1C(=O)Nc1ccc(Oc2ccnc3cc(OCCCN4CCOCC4)c(OC)cc23)c(F)c1 [Example 49, 1-(2-bromo-4-fluoro-phenyl)-4-ethoxy-N-[3-fluoro-4-[[6-methoxy-7-(3-morpholinopropoxy)-4-quinolyl]oxy]phenyl]pyrazole-3-carboxamide]?
A: IC50 (Axl [1]): < 500 nM; IC50 (Axl [2]): < 500 nM

Q: Which IC50 (Axl [1]) does the source give for COCCOc1cn(-c2ccc(F)cc2)nc1C(=O)Nc1ccc(Oc2ccnc3cc(OCCCN4CCOCC4)c(OC)cc23)c(F)c1 [Example 50, N-[3-fluoro-4-[[6-methoxy-7-(3-morpholinopropoxy)-4-quinolyl]oxy]phenyl]-1-(4-fluorophenyl)-4-(2-methoxyethoxy)pyrazole-3-carboxamide] here?
A: Its IC50 is less than 500 nM.

Q: What about the IC50 (Axl [2]) of the same molecule?
A: Its IC50 is less than 500 nM.

Q: COc1cc2c(Oc3ccc(NC(=O)c4nn(-c5ccc(F)cc5)cc4OCc4ccccc4)cc3F)ccnc2cc1OCCCN1CCOCC1 [Example 51, 4-benzyloxy-N-[3-fluoro-4-[[6-methoxy-7-(3-morpholinopropoxy)-4-quinolyl]oxy]phenyl]-1-(4-fluorophenyl)pyrazole-3-carboxamide] was tested. Which IC50 (Axl [1]) did it give?
A: Its IC50 is less than 500 nM.

Q: And the IC50 (Axl [2])?
A: Its IC50 is less than 500 nM.

Q: How did the IC50 (Axl [1]) turn out when COc1cc2c(Oc3ccc(NC(=O)c4nn(-c5ccc(F)cc5)cc4[N+](=O)[O-])cc3F)ccnc2cc1OCCCN1CCOCC1 [Example 52, N-[3-fluoro-4-[[6-methoxy-7-(3-morpholinopropoxy)-4-quinolyl]oxy]phenyl]-1-(4-fluorophenyl)-4-nitro-pyrazole-3-carboxamide] was run?
A: Its IC50 is less than 500 nM.

Q: And the IC50 (Axl [2])?
A: The IC50 was less than 500 nM.

Q: COc1cc2c(Oc3ccc(NC(=O)c4nn(-c5ccc(F)cc5)cc4N)cc3F)ccnc2cc1OCCCN1CCOCC1 [Example 53, 4-amino-N-[3-fluoro-4-[[6-methoxy-7-(3-morpholinopropoxy)-4-quinolyl]oxy]phenyl]-1-(4-fluorophenyl)pyrazole-3-carboxamide] was tested. Which IC50 (Axl [1]) did it give?
A: The IC50 was less than 500 nM.

Q: And the IC50 (Axl [2])?
A: The IC50 was less than 500 nM.

Q: For CCOc1cn(-c2ccc(F)cc2)nc1C(=O)Nc1ccc(Oc2ccnc3cc(OCCCN)c(OC)cc23)c(F)c1 [Example 54, N-[4-[[7-(3-aminopropoxy)-6-methoxy-4-quinolyl]oxy]-3-fluoro-phenyl]-4-ethoxy-1-(4-fluorophenyl)pyrazole-3-carboxamide], which IC50 (Axl [1]) is on record?
A: Its IC50 is less than 500 nM.

Q: And the IC50 (Axl [2])?
A: The IC50 was less than 500 nM.

Q: With CCOc1cn(-c2ccc(F)cc2C)nc1C(=O)Nc1ccc(Oc2ccnc3cc(OCCCN)c(OC)cc23)c(F)c1 [Example 55, N-[4-[[7-(3-aminopropoxy)-6-methoxy-4-quinolyl]oxy]-3-fluoro-phenyl]-4-ethoxy-1-(4-fluoro-2-methyl-phenyl)pyrazole-3-carboxamide] as the molecule, how does the IC50 (Axl [1]) read?
A: The IC50 was less than 500 nM.

Q: What about the IC50 (Axl [2]) of the same molecule?
A: Its IC50 is less than 500 nM.

Q: How did the IC50 (Axl [1]) turn out when CCOc1oc(-c2ccc(F)cc2)nc1C(=O)Nc1ccc(Oc2ccnc3cc(OCCCN)c(OC)cc23)c(F)c1 [Example 56, N-[4-[[7-(3-aminopropoxy)-6-methoxy-4-quinolyl]oxy]-3-fluoro-phenyl]-5-ethoxy-2-(4-fluorophenyl)oxazole-4-carboxamide] was run?
A: Its IC50 is less than 500 nM.

Q: And the IC50 (Axl [2])?
A: The IC50 was less than 500 nM.

Q: What does the source list for CCOc1cn(-c2ccc(F)cc2C)nc1C(=O)Nc1ccc(Oc2ccnc3cc(OCCCN4CCN(C)CC4)c(OC)cc23)c(F)c1 [Example 57, 4-ethoxy-N-[3-fluoro-4-[[6-methoxy-7-[3-(4-methylpiperazin-1-yl)propoxy]-4-quinolyl]oxy]phenyl]-1-(4-fluoro-2-methyl-phenyl)pyrazole-3-carboxamide]?
A: IC50 (Axl [1]): < 500 nM; IC50 (Axl [2]): < 500 nM

Q: Which IC50 (Axl [1]) does the source give for CCOc1cn(-c2ccc(F)cc2)nc1C(=O)Nc1ccc(Oc2ccnc3cc(OCCCN4CCN(C)CC4)c(OC)cc23)c(F)c1 [Example 58, 4-ethoxy-N-[3-fluoro-4-[[6-methoxy-7-[3-(4-methylpiperazin-1-yl)propoxy]-4-quinolyl]oxy]phenyl]-1-(4-fluorophenyl)pyrazole-3-carboxamide] here?
A: Its IC50 is less than 500 nM.

Q: What about the IC50 (Axl [2]) of the same molecule?
A: The IC50 was less than 500 nM.

Q: Which results are given for COc1cc2c(Oc3ccc(NC(=O)c4nn(-c5ccc(F)cc5)cc4OC)cc3F)ccnc2cc1OCCCN1CCN(C)CC1 [Example 59, N-[3-fluoro-4-[[6-methoxy-7-[3-(4-methylpiperazin-1-yl)propoxy]-4-quinolyl]oxy]phenyl]-1-(4-fluorophenyl)-4-methoxy-pyrazole-3-carboxamide]?
A: IC50 (Axl [1]): < 500 nM; IC50 (Axl [2]): < 500 nM

Q: For CCOc1cn(-c2ccc(F)cc2Cl)nc1C(=O)Nc1ccc(Oc2ccnc3cc(OCCCN4CCN(C)CC4)c(OC)cc23)c(F)c1 [Example 60, 1-(2-chloro-4-fluoro-phenyl)-4-ethoxy-N-[3-fluoro-4-[[6-methoxy-7-[3-(4-methylpiperazin-1-yl)propoxy]-4-quinolyl]oxy]phenyl]pyrazole-3-carboxamide], which IC50 (Axl [1]) is on record?
A: Its IC50 is less than 500 nM.

Q: What about the IC50 (Axl [2]) of the same molecule?
A: Its IC50 is less than 500 nM.

Q: Which IC50 (Axl [1]) does the source give for COc1cc2c(Oc3ccc(NC(=O)c4nn(-c5ccc(F)cc5)cc4OCC4CC4)cc3F)ccnc2cc1OCCCN1CCN(C)CC1 [Example 61, 4-(cyclopropylmethoxy)-N-[3-fluoro-4-[[6-methoxy-7-[3-(4-methylpiperazin-1-yl)propoxy]-4-quinolyl]oxy]phenyl]-1-(4-fluorophenyl)pyrazole-3-carboxamide] here?
A: The IC50 was less than 500 nM.

Q: And the IC50 (Axl [2])?
A: Its IC50 is less than 500 nM.

Q: COc1cc2c(Oc3ccc(NC(=O)c4nn(-c5ccc(F)cc5)cc4OC(C)C)cc3F)ccnc2cc1OCCCN1CCN(C)CC1 [Example 62, N-[3-fluoro-4-[[6-methoxy-7-[3-(4-methylpiperazin-1-yl)propoxy]-4-quinolyl]oxy]phenyl]-1-(4-fluorophenyl)-4-isopropoxy-pyrazole-3-carboxamide] was tested. Which IC50 (Axl [1]) did it give?
A: Its IC50 is less than 500 nM.

Q: What about the IC50 (Axl [2]) of the same molecule?
A: The IC50 was less than 500 nM.

Q: What does the source list for CCOc1oc(-c2ccc(F)cc2)nc1C(=O)Nc1ccc(Oc2ccnc3cc(OCCCN4CCN(C)CC4)c(OC)cc23)c(F)c1 [Example 63, 5-ethoxy-N-[3-fluoro-4-[[6-methoxy-7-[3-(4-methylpiperazin-1-yl)propoxy]-4-quinolyl]oxy]phenyl]-2-(4-fluorophenyl)oxazole-4-carboxamide]?
A: IC50 (Axl [1]): < 500 nM; IC50 (Axl [2]): < 500 nM

Q: Which results are given for COc1cc2c(Oc3ccc(NC(=O)c4nn(-c5ccc(F)cc5)cc4OCC4CC4)cc3F)ccnc2cc1OCCCN1CCNCC1 [Example 64, 4-(cyclopropylmethoxy)-N-[3-fluoro-4-[[6-methoxy-7-(3-piperazin-1-ylpropoxy)-4-quinolyl]oxy]phenyl]-1-(4-fluorophenyl)pyrazole-3-carboxamide trifluoroacetic acid salt]?
A: IC50 (Axl [1]): < 500 nM; IC50 (Axl [2]): < 500 nM

Q: Which results are given for CCOc1cn(-c2ccc(F)cc2)nc1C(=O)Nc1ccc(Oc2ccnc3cc(OCCCN4CCNCC4)c(OC)cc23)c(F)c1 [Example 65, 4-ethoxy-N-[3-fluoro-4-[[6-methoxy-7-(3-piperazin-1-ylpropoxy)-4-quinolyl]oxy]phenyl]-1-(4-fluorophenyl)pyrazole-3-carboxamide]?
A: IC50 (Axl [1]): < 500 nM; IC50 (Axl [2]): < 500 nM

Q: Which IC50 (Axl [1]) does the source give for COc1cc2c(Oc3ccc(NC(=O)c4nn(-c5ccc(F)cc5)cc4OC)cc3F)ccnc2cc1OCCCN1CCNCC1 [Example 66, N-[3-fluoro-4-[[6-methoxy-7-(3-piperazin-1-ylpropoxy)-4-quinolyl]oxy]phenyl]-1-(4-fluorophenyl)-4-methoxy-pyrazole-3-carboxamide] here?
A: The IC50 was less than 500 nM.

Q: And the IC50 (Axl [2])?
A: The IC50 was less than 500 nM.

Q: Which results are given for COc1cc2c(Oc3ccc(NC(=O)c4nn(-c5ccc(F)cc5)cc4OC(C)C)cc3F)ccnc2cc1OCCCN1CCNCC1 [Example 67, N-[3-fluoro-4-[[6-methoxy-7-(3-piperazin-1-ylpropoxy)-4-quinolyl]oxy]phenyl]-1-(4-fluorophenyl)-4-isopropoxy-pyrazole-3-carboxamide]?
A: IC50 (Axl [1]): < 500 nM; IC50 (Axl [2]): < 500 nM

Q: CCOc1cn(-c2ccc(F)cc2Cl)nc1C(=O)Nc1ccc(Oc2ccnc3cc(OCCCN4CCNCC4)c(OC)cc23)c(F)c1 [Example 68, 1-(2-chloro-4-fluoro-phenyl)-4-ethoxy-N-[3-fluoro-4-[[6-methoxy-7-(3-piperazin-1-ylpropoxy)-4-quinolyl]oxy]phenyl]pyrazole-3-carboxamide] was tested. Which IC50 (Axl [1]) did it give?
A: The IC50 was less than 500 nM.

Q: And the IC50 (Axl [2])?
A: Its IC50 is less than 500 nM.

Q: CCOc1cn(-c2ccc(F)cc2C)nc1C(=O)Nc1ccc(Oc2ccnc3cc(OCCCN4CCNCC4)c(OC)cc23)c(F)c1 [Example 69, 4-ethoxy-N-[3-fluoro-4-[[6-methoxy-7-(3-piperazin-1-ylpropoxy)-4-quinolyl]oxy)phenyl]-1-(4-fluoro-2-methyl-phenyl)pyrazole-3-carboxamide] was tested. Which IC50 (Axl [1]) did it give?
A: Its IC50 is less than 500 nM.

Q: What about the IC50 (Axl [2]) of the same molecule?
A: The IC50 was less than 500 nM.

Q: What does the source list for COCCOc1cn(-c2ccc(F)cc2)nc1C(=O)Nc1ccc(Oc2ccnc3cc(OCCCN4CCNCC4)c(OC)cc23)c(F)c1 [Example 70, N-[3-fluoro-4-[[6-methoxy-7-(3-piperazin-1-ylpropoxy)-4-quinolyl]oxy]phenyl]-1-(4-fluorophenyl)-4-(2-methoxyethoxy)pyrazole-3-carboxamide]?
A: IC50 (Axl [1]): < 500 nM; IC50 (Axl [2]): < 500 nM
